Measured values from PubChem BioAssay AID2060627 (Molecular Pharmacology Branch, DTP, NCI, 2025).

These compounds were tested on 156681-154-R-J1-PDC complex spheroid viability (assay: Anticancer human tumor 156681-154-R-J1-PDC patient-derived melanoma cell line growth inhibition [CLK]). Details: second compound 3.16 µM; first compound 0.1 µM; stronger effect = lower value.
Procedure, shortened: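 Multi-cell-type spheroids combined patient-derived tumor cells with HUVEC endothelial cells and human mesenchymal stem cells. Paired agents were dosed in half-log steps down from about clinical Cmax, or from 10 microM where Cmax was unknown.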
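Note: spheroids exposed to the agents for seven days; 100% = DMSO vehicle control viability.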

SMILES	viability, T/C
CCc1c2c(nc3ccc(O)cc13)-c1cc3c(c(=O)n1C2)COC(=O)[C@]3(O)CC + CNC(=O)c1ccc(Nc2nc(OC3CCCC3)c3c(-c4ccc5nc(C)oc5c4)c[nH]c3n2)c(OC)c1	14.2%
CC(CO)NC(=O)c1cc(-c2ccc(Cl)cc2)nn(-c2cnn(C)c2)c1=O (stereo not drawn) + CNC(=O)c1ccc(Nc2nc(OC3CCCC3)c3c(-c4ccc5nc(C)oc5c4)c[nH]c3n2)c(OC)c1	36.9%
Nc1ccn(C2OC(CO)C(O)C2(F)F)c(=O)n1 (stereo not drawn) + CN1CCN(c2cc(C(=O)Nc3cc4cc(-c5cnn(C)c5)ccc4cn3)ccn2)CC1	1.54%
COc1ccc([C@@H](O)c2cc(-c3ncnc4cc(N5CCOCC5)ccc34)c(F)cc2Cl)nn1 + CNC(=O)c1ccc(Nc2nc(OC3CCCC3)c3c(-c4ccc5nc(C)oc5c4)c[nH]c3n2)c(OC)c1	47.6%
COC1C=CCC(C)C(C)S(=O)(=O)NC(=O)c2ccc3c(c2)N(CC2CCC21)CC1(CCCc2cc(Cl)ccc21)CO3 (stereo not drawn) + CN1CCN(c2cc(C(=O)Nc3cc4cc(-c5cnn(C)c5)ccc4cn3)ccn2)CC1	2.92%

Same assay, conditions: second compound 3.16 µM; first compound 0.316 µM; stronger effect = lower value

SMILES	viability, T/C
CCc1c2c(nc3ccc(O)cc13)-c1cc3c(c(=O)n1C2)COC(=O)[C@]3(O)CC + CNC(=O)c1ccc(Nc2nc(OC3CCCC3)c3c(-c4ccc5nc(C)oc5c4)c[nH]c3n2)c(OC)c1	13.1%
CC(CO)NC(=O)c1cc(-c2ccc(Cl)cc2)nn(-c2cnn(C)c2)c1=O (stereo not drawn) + CNC(=O)c1ccc(Nc2nc(OC3CCCC3)c3c(-c4ccc5nc(C)oc5c4)c[nH]c3n2)c(OC)c1	42.1%
Nc1ccn(C2OC(CO)C(O)C2(F)F)c(=O)n1 (stereo not drawn) + CN1CCN(c2cc(C(=O)Nc3cc4cc(-c5cnn(C)c5)ccc4cn3)ccn2)CC1	0.42%
COc1ccc([C@@H](O)c2cc(-c3ncnc4cc(N5CCOCC5)ccc34)c(F)cc2Cl)nn1 + CNC(=O)c1ccc(Nc2nc(OC3CCCC3)c3c(-c4ccc5nc(C)oc5c4)c[nH]c3n2)c(OC)c1	37.1%
COC1C=CCC(C)C(C)S(=O)(=O)NC(=O)c2ccc3c(c2)N(CC2CCC21)CC1(CCCc2cc(Cl)ccc21)CO3 (stereo not drawn) + CN1CCN(c2cc(C(=O)Nc3cc4cc(-c5cnn(C)c5)ccc4cn3)ccn2)CC1	1.77%

Same assay, conditions: second compound 3.16 µM; first compound 1 µM; stronger effect = lower value

SMILES	viability, T/C
CCc1c2c(nc3ccc(O)cc13)-c1cc3c(c(=O)n1C2)COC(=O)[C@]3(O)CC + CNC(=O)c1ccc(Nc2nc(OC3CCCC3)c3c(-c4ccc5nc(C)oc5c4)c[nH]c3n2)c(OC)c1	2.05%
CC(CO)NC(=O)c1cc(-c2ccc(Cl)cc2)nn(-c2cnn(C)c2)c1=O (stereo not drawn) + CNC(=O)c1ccc(Nc2nc(OC3CCCC3)c3c(-c4ccc5nc(C)oc5c4)c[nH]c3n2)c(OC)c1	36.7%
Nc1ccn(C2OC(CO)C(O)C2(F)F)c(=O)n1 (stereo not drawn) + CN1CCN(c2cc(C(=O)Nc3cc4cc(-c5cnn(C)c5)ccc4cn3)ccn2)CC1	0.1%
COc1ccc([C@@H](O)c2cc(-c3ncnc4cc(N5CCOCC5)ccc34)c(F)cc2Cl)nn1 + CNC(=O)c1ccc(Nc2nc(OC3CCCC3)c3c(-c4ccc5nc(C)oc5c4)c[nH]c3n2)c(OC)c1	33.7%
COC1C=CCC(C)C(C)S(=O)(=O)NC(=O)c2ccc3c(c2)N(CC2CCC21)CC1(CCCc2cc(Cl)ccc21)CO3 (stereo not drawn) + CN1CCN(c2cc(C(=O)Nc3cc4cc(-c5cnn(C)c5)ccc4cn3)ccn2)CC1	0.13%

Same assay, conditions: second compound 3.16 µM; first compound 3.16 µM; stronger effect = lower value

SMILES	viability, T/C
CC(CO)NC(=O)c1cc(-c2ccc(Cl)cc2)nn(-c2cnn(C)c2)c1=O (stereo not drawn) + CNC(=O)c1ccc(Nc2nc(OC3CCCC3)c3c(-c4ccc5nc(C)oc5c4)c[nH]c3n2)c(OC)c1	37.8%
Nc1ccn(C2OC(CO)C(O)C2(F)F)c(=O)n1 (stereo not drawn) + CN1CCN(c2cc(C(=O)Nc3cc4cc(-c5cnn(C)c5)ccc4cn3)ccn2)CC1	4.55%
COc1ccc([C@@H](O)c2cc(-c3ncnc4cc(N5CCOCC5)ccc34)c(F)cc2Cl)nn1 + CNC(=O)c1ccc(Nc2nc(OC3CCCC3)c3c(-c4ccc5nc(C)oc5c4)c[nH]c3n2)c(OC)c1	29.7%
COC1C=CCC(C)C(C)S(=O)(=O)NC(=O)c2ccc3c(c2)N(CC2CCC21)CC1(CCCc2cc(Cl)ccc21)CO3 (stereo not drawn) + CN1CCN(c2cc(C(=O)Nc3cc4cc(-c5cnn(C)c5)ccc4cn3)ccn2)CC1	2.33%

Same assay, conditions: second compound 3.16 µM; first compound 10 µM; stronger effect = lower value

SMILES	viability, T/C
CC(CO)NC(=O)c1cc(-c2ccc(Cl)cc2)nn(-c2cnn(C)c2)c1=O (stereo not drawn) + CNC(=O)c1ccc(Nc2nc(OC3CCCC3)c3c(-c4ccc5nc(C)oc5c4)c[nH]c3n2)c(OC)c1	23.2%
Nc1ccn(C2OC(CO)C(O)C2(F)F)c(=O)n1 (stereo not drawn) + CN1CCN(c2cc(C(=O)Nc3cc4cc(-c5cnn(C)c5)ccc4cn3)ccn2)CC1	0.67%
COc1ccc([C@@H](O)c2cc(-c3ncnc4cc(N5CCOCC5)ccc34)c(F)cc2Cl)nn1 + CNC(=O)c1ccc(Nc2nc(OC3CCCC3)c3c(-c4ccc5nc(C)oc5c4)c[nH]c3n2)c(OC)c1	5.99%
COC1C=CCC(C)C(C)S(=O)(=O)NC(=O)c2ccc3c(c2)N(CC2CCC21)CC1(CCCc2cc(Cl)ccc21)CO3 (stereo not drawn) + CN1CCN(c2cc(C(=O)Nc3cc4cc(-c5cnn(C)c5)ccc4cn3)ccn2)CC1	1.15%

Same assay, conditions: second compound 10 µM; first compound 0.00316 µM; stronger effect = lower value

SMILES	viability, T/C
CCc1c2c(nc3ccc(O)cc13)-c1cc3c(c(=O)n1C2)COC(=O)[C@]3(O)CC + CNC(=O)c1ccc(Nc2nc(OC3CCCC3)c3c(-c4ccc5nc(C)oc5c4)c[nH]c3n2)c(OC)c1	18.9%

Same assay, conditions: second compound 10 µM; first compound 0.01 µM; stronger effect = lower value

SMILES	viability, T/C
CCc1c2c(nc3ccc(O)cc13)-c1cc3c(c(=O)n1C2)COC(=O)[C@]3(O)CC + CNC(=O)c1ccc(Nc2nc(OC3CCCC3)c3c(-c4ccc5nc(C)oc5c4)c[nH]c3n2)c(OC)c1	12%

Same assay, conditions: second compound 10 µM; first compound 0.0316 µM; stronger effect = lower value

SMILES	viability, T/C
CCc1c2c(nc3ccc(O)cc13)-c1cc3c(c(=O)n1C2)COC(=O)[C@]3(O)CC + CNC(=O)c1ccc(Nc2nc(OC3CCCC3)c3c(-c4ccc5nc(C)oc5c4)c[nH]c3n2)c(OC)c1	11.1%
CC(CO)NC(=O)c1cc(-c2ccc(Cl)cc2)nn(-c2cnn(C)c2)c1=O (stereo not drawn) + CNC(=O)c1ccc(Nc2nc(OC3CCCC3)c3c(-c4ccc5nc(C)oc5c4)c[nH]c3n2)c(OC)c1	42.6%
Nc1ccn(C2OC(CO)C(O)C2(F)F)c(=O)n1 (stereo not drawn) + CN1CCN(c2cc(C(=O)Nc3cc4cc(-c5cnn(C)c5)ccc4cn3)ccn2)CC1	0.15%
COc1ccc([C@@H](O)c2cc(-c3ncnc4cc(N5CCOCC5)ccc34)c(F)cc2Cl)nn1 + CNC(=O)c1ccc(Nc2nc(OC3CCCC3)c3c(-c4ccc5nc(C)oc5c4)c[nH]c3n2)c(OC)c1	39.3%
COC1C=CCC(C)C(C)S(=O)(=O)NC(=O)c2ccc3c(c2)N(CC2CCC21)CC1(CCCc2cc(Cl)ccc21)CO3 (stereo not drawn) + CN1CCN(c2cc(C(=O)Nc3cc4cc(-c5cnn(C)c5)ccc4cn3)ccn2)CC1	0.16%

Same assay, conditions: second compound 10 µM; first compound 0.1 µM; stronger effect = lower value

SMILES	viability, T/C
CCc1c2c(nc3ccc(O)cc13)-c1cc3c(c(=O)n1C2)COC(=O)[C@]3(O)CC + CNC(=O)c1ccc(Nc2nc(OC3CCCC3)c3c(-c4ccc5nc(C)oc5c4)c[nH]c3n2)c(OC)c1	12.5%
CC(CO)NC(=O)c1cc(-c2ccc(Cl)cc2)nn(-c2cnn(C)c2)c1=O (stereo not drawn) + CNC(=O)c1ccc(Nc2nc(OC3CCCC3)c3c(-c4ccc5nc(C)oc5c4)c[nH]c3n2)c(OC)c1	43.8%
Nc1ccn(C2OC(CO)C(O)C2(F)F)c(=O)n1 (stereo not drawn) + CN1CCN(c2cc(C(=O)Nc3cc4cc(-c5cnn(C)c5)ccc4cn3)ccn2)CC1	2.7%
COc1ccc([C@@H](O)c2cc(-c3ncnc4cc(N5CCOCC5)ccc34)c(F)cc2Cl)nn1 + CNC(=O)c1ccc(Nc2nc(OC3CCCC3)c3c(-c4ccc5nc(C)oc5c4)c[nH]c3n2)c(OC)c1	30%
COC1C=CCC(C)C(C)S(=O)(=O)NC(=O)c2ccc3c(c2)N(CC2CCC21)CC1(CCCc2cc(Cl)ccc21)CO3 (stereo not drawn) + CN1CCN(c2cc(C(=O)Nc3cc4cc(-c5cnn(C)c5)ccc4cn3)ccn2)CC1	0.14%

Same assay, conditions: second compound 10 µM; first compound 0.316 µM; stronger effect = lower value

SMILES	viability, T/C
CCc1c2c(nc3ccc(O)cc13)-c1cc3c(c(=O)n1C2)COC(=O)[C@]3(O)CC + CNC(=O)c1ccc(Nc2nc(OC3CCCC3)c3c(-c4ccc5nc(C)oc5c4)c[nH]c3n2)c(OC)c1	9.62%
CC(CO)NC(=O)c1cc(-c2ccc(Cl)cc2)nn(-c2cnn(C)c2)c1=O (stereo not drawn) + CNC(=O)c1ccc(Nc2nc(OC3CCCC3)c3c(-c4ccc5nc(C)oc5c4)c[nH]c3n2)c(OC)c1	35.8%
Nc1ccn(C2OC(CO)C(O)C2(F)F)c(=O)n1 (stereo not drawn) + CN1CCN(c2cc(C(=O)Nc3cc4cc(-c5cnn(C)c5)ccc4cn3)ccn2)CC1	0.29%
COc1ccc([C@@H](O)c2cc(-c3ncnc4cc(N5CCOCC5)ccc34)c(F)cc2Cl)nn1 + CNC(=O)c1ccc(Nc2nc(OC3CCCC3)c3c(-c4ccc5nc(C)oc5c4)c[nH]c3n2)c(OC)c1	29.9%
COC1C=CCC(C)C(C)S(=O)(=O)NC(=O)c2ccc3c(c2)N(CC2CCC21)CC1(CCCc2cc(Cl)ccc21)CO3 (stereo not drawn) + CN1CCN(c2cc(C(=O)Nc3cc4cc(-c5cnn(C)c5)ccc4cn3)ccn2)CC1	0.26%

Same assay, conditions: second compound 10 µM; first compound 1 µM; stronger effect = lower value

SMILES	viability, T/C
CCc1c2c(nc3ccc(O)cc13)-c1cc3c(c(=O)n1C2)COC(=O)[C@]3(O)CC + CNC(=O)c1ccc(Nc2nc(OC3CCCC3)c3c(-c4ccc5nc(C)oc5c4)c[nH]c3n2)c(OC)c1	1.61%
CC(CO)NC(=O)c1cc(-c2ccc(Cl)cc2)nn(-c2cnn(C)c2)c1=O (stereo not drawn) + CNC(=O)c1ccc(Nc2nc(OC3CCCC3)c3c(-c4ccc5nc(C)oc5c4)c[nH]c3n2)c(OC)c1	35.6%
Nc1ccn(C2OC(CO)C(O)C2(F)F)c(=O)n1 (stereo not drawn) + CN1CCN(c2cc(C(=O)Nc3cc4cc(-c5cnn(C)c5)ccc4cn3)ccn2)CC1	4.06%
COc1ccc([C@@H](O)c2cc(-c3ncnc4cc(N5CCOCC5)ccc34)c(F)cc2Cl)nn1 + CNC(=O)c1ccc(Nc2nc(OC3CCCC3)c3c(-c4ccc5nc(C)oc5c4)c[nH]c3n2)c(OC)c1	28%
COC1C=CCC(C)C(C)S(=O)(=O)NC(=O)c2ccc3c(c2)N(CC2CCC21)CC1(CCCc2cc(Cl)ccc21)CO3 (stereo not drawn) + CN1CCN(c2cc(C(=O)Nc3cc4cc(-c5cnn(C)c5)ccc4cn3)ccn2)CC1	0.22%

Same assay, conditions: second compound 10 µM; first compound 3.16 µM; stronger effect = lower value

SMILES	viability, T/C
CC(CO)NC(=O)c1cc(-c2ccc(Cl)cc2)nn(-c2cnn(C)c2)c1=O (stereo not drawn) + CNC(=O)c1ccc(Nc2nc(OC3CCCC3)c3c(-c4ccc5nc(C)oc5c4)c[nH]c3n2)c(OC)c1	29.5%
Nc1ccn(C2OC(CO)C(O)C2(F)F)c(=O)n1 (stereo not drawn) + CN1CCN(c2cc(C(=O)Nc3cc4cc(-c5cnn(C)c5)ccc4cn3)ccn2)CC1	1.19%
COc1ccc([C@@H](O)c2cc(-c3ncnc4cc(N5CCOCC5)ccc34)c(F)cc2Cl)nn1 + CNC(=O)c1ccc(Nc2nc(OC3CCCC3)c3c(-c4ccc5nc(C)oc5c4)c[nH]c3n2)c(OC)c1	18.9%
COC1C=CCC(C)C(C)S(=O)(=O)NC(=O)c2ccc3c(c2)N(CC2CCC21)CC1(CCCc2cc(Cl)ccc21)CO3 (stereo not drawn) + CN1CCN(c2cc(C(=O)Nc3cc4cc(-c5cnn(C)c5)ccc4cn3)ccn2)CC1	0.29%

Same assay, conditions: second compound 10 µM; first compound 10 µM; stronger effect = lower value

SMILES	viability, T/C
CC(CO)NC(=O)c1cc(-c2ccc(Cl)cc2)nn(-c2cnn(C)c2)c1=O (stereo not drawn) + CNC(=O)c1ccc(Nc2nc(OC3CCCC3)c3c(-c4ccc5nc(C)oc5c4)c[nH]c3n2)c(OC)c1	21.2%
Nc1ccn(C2OC(CO)C(O)C2(F)F)c(=O)n1 (stereo not drawn) + CN1CCN(c2cc(C(=O)Nc3cc4cc(-c5cnn(C)c5)ccc4cn3)ccn2)CC1	2.59%
COc1ccc([C@@H](O)c2cc(-c3ncnc4cc(N5CCOCC5)ccc34)c(F)cc2Cl)nn1 + CNC(=O)c1ccc(Nc2nc(OC3CCCC3)c3c(-c4ccc5nc(C)oc5c4)c[nH]c3n2)c(OC)c1	2.83%
COC1C=CCC(C)C(C)S(=O)(=O)NC(=O)c2ccc3c(c2)N(CC2CCC21)CC1(CCCc2cc(Cl)ccc21)CO3 (stereo not drawn) + CN1CCN(c2cc(C(=O)Nc3cc4cc(-c5cnn(C)c5)ccc4cn3)ccn2)CC1	0.25%
